The source made the active and inactive calls. The rule behind the calls is not given here.
Key:
[1] = tested on: Canis familiaris; assay: Effect on aspartate aminotransferase level in Beagle dog serum at 0.3 to 3 mg/kg, po/day after 7 days; type: functional, organism-based; settings: Canis lupus familiaris
[2] = Induction of CPT1 gene expression in human skeletal muscle cells at 1000 nM by RT-PCR; type: functional
[3] = Induction of Pa9 gene expression in human skeletal muscle cells at 1000 nM by RT-PCR; type: functional
[4] = Cmax in Sprague-Dawley rat at 0.1 mg/kg administered as multiple dose after 8 days; type: ADME, organism-based; parameters: dose 0.1 mg/kg; settings: in vivo
[5] = AUC in Beagle dog at 0.3 mg/kg administered as multiple dose after 7 days; type: ADME, organism-based, Canis lupus familiaris; parameters: dose 0.3 mg/kg; settings: plasma
[6] = Cmax in ob/ob C57BL/6J-leptin deficient obese mouse at 3 mg/kg administered as multiple dose after 11 days; type: ADME, organism-based; parameters: dose 3 mg/kg; settings: in vivo
[7] = Half life in Sprague-Dawley rat at 0.1 mg/kg administered as multiple dose after 8 days; type: ADME, organism-based; parameters: dose 0.1 mg/kg; settings: in vivo
[8] = Activity at retinoic acid receptor
[9] = AUC in ob/ob C57BL/6J-leptin deficient obese mouse at 0.1 mg/kg administered as multiple dose after 11 days; type: ADME, organism-based; parameters: dose 0.1 mg/kg; settings: plasma
[10] = Induction of ABCA1 gene expression in human skeletal muscle cells at 1 nM by RT-PCR; type: functional
[11] = Cmax in Sprague-Dawley rat at 3 mg/kg administered as single dose on day 8; type: ADME, organism-based; parameters: dose 3 mg/kg; settings: in vivo
[12] = Half life in ob/ob C57BL/6J-leptin deficient obese mouse at 3 mg/kg administered as single dose on day 11; type: ADME, organism-based; parameters: dose 3 mg/kg; settings: in vivo
[13] = tested on: Mus musculus; assay: Reduction in triglyceride level in po dosed hApoA1 transgenic mouse after 7 days; type: functional, organism-based
[14] = Half life in Beagle dog at 0.3 mg/kg administered as multiple dose after 7 days; type: ADME, organism-based, Canis lupus familiaris; parameters: dose 0.3 mg/kg; settings: in vivo
[15] = Half life in ob/ob C57BL/6J-leptin deficient obese mouse at 0.1 mg/kg administered as multiple dose after 11 days; type: ADME, organism-based; parameters: dose 0.1 mg/kg; settings: in vivo
[16] = Inhibition of cytochrome P450 in human liver microsome; type: ADME, microsomes
[17] = tested on: Canis familiaris; assay: Antihyperlipidemic activity in Beagle dog serum assessed as reduction in total cholesterol level at 0.3 to 10 mg/kg, po/day after 7 days; type: functional, organism-based; settings: Canis lupus familiaris
[18] = Cmax in Sprague-Dawley rat at 0.3 mg/kg administered as multiple dose after 8 days; type: ADME, organism-based; parameters: dose 0.3 mg/kg; settings: in vivo
[19] = Cmax in Beagle dog at 10 mg/kg administered as single dose on day 7; type: ADME, organism-based, Canis lupus familiaris; parameters: dose 10 mg/kg; settings: in vivo
[20] = tested on: Mus musculus; assay: Increase in hApoA1 level in po dosed hApoA1 transgenic mouse after 7 days; type: functional, organism-based
[21] = AUC in Sprague-Dawley rat at 3 mg/kg administered as single dose on day 8; type: ADME, organism-based; parameters: dose 3 mg/kg; settings: plasma
[22] = Half life in ob/ob C57BL/6J-leptin deficient obese mouse at 1 mg/kg administered as multiple dose after 11 days; type: ADME, organism-based; parameters: dose 1 mg/kg; settings: in vivo
[23] = Half life in Beagle dog at 1 mg/kg administered as multiple dose after 7 days; type: ADME, organism-based, Canis lupus familiaris; parameters: dose 1 mg/kg; settings: in vivo
[24] = tested on: Mus musculus; assay: Increase in HDL cholesterol level in po dosed hApoA1 transgenic mouse after 7 days; type: functional, organism-based
[25] = Half life in ob/ob C57BL/6J-leptin deficient obese mouse at 3 mg/kg administered as multiple dose after 11 days; type: ADME, organism-based; parameters: dose 3 mg/kg; settings: in vivo
[26] = Cmax in Beagle dog at 10 mg/kg administered as multiple dose after 7 days; type: ADME, organism-based, Canis lupus familiaris; parameters: dose 10 mg/kg; settings: in vivo
[27] = tested on: Mus musculus; assay: […] effect of ob/ob C57BL/6J-leptin deficient obese mouse assessed as reduction in serum insulin level at 0.1 to 3 mg/kg, po after 11 days; type: functional; parameters: scale not given: the % may be the effect or the level left; settings: dose mg/kg 0.1-3
[28] = AUC in ob/ob C57BL/6J-leptin deficient obese mouse at 3 mg/kg administered as single dose on day 11; type: ADME, organism-based; parameters: dose 3 mg/kg; settings: plasma
[29] = AUC in Beagle dog at 10 mg/kg administered as multiple dose after 7 days; type: ADME, organism-based, Canis lupus familiaris; parameters: dose 10 mg/kg; settings: plasma
[30] = biological target: T1, Bile acid receptor (Homo sapiens) (UniProt Q96RI1); assay: Activity at farnesoid X receptor
T1 sequence (whole entry): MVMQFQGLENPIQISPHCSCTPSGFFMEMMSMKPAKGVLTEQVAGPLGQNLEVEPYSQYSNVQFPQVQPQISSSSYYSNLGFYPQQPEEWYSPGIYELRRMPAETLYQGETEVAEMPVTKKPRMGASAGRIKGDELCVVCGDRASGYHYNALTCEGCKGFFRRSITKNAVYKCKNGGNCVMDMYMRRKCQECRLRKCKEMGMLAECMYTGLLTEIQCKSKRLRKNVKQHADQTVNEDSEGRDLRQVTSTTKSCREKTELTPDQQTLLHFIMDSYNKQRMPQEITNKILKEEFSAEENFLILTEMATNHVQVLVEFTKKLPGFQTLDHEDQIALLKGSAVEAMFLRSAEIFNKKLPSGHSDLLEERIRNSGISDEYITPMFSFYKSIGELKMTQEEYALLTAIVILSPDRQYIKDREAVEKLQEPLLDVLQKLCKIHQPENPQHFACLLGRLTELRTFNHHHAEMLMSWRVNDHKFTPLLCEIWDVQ

[31] = AUC in Sprague-Dawley rat at 1 mg/kg administered as multiple dose after 8 days; type: ADME, organism-based; parameters: dose 1 mg/kg; settings: plasma
[32] = AUC in ob/ob C57BL/6J-leptin deficient obese mouse at 3 mg/kg administered as multiple dose after 11 days; type: ADME, organism-based; parameters: dose 3 mg/kg; settings: plasma
[33] = tested on: Mus musculus; assay: […] effect of ob/ob C57BL/6J-leptin deficient obese mouse assessed as reduction in serum glucose level at 0.1 to 3 mg/kg, po after 11 days; type: functional; parameters: scale not given: the % may be the effect or the level left; settings: dose mg/kg 0.1-3
[34] = AUC in Beagle dog at 10 mg/kg administered as single dose on day 7; type: ADME, organism-based, Canis lupus familiaris; parameters: dose 10 mg/kg; settings: plasma
[35] = Half life in Sprague-Dawley rat at 0.3 mg/kg administered as multiple dose after 8 days; type: ADME, organism-based; parameters: dose 0.3 mg/kg; settings: in vivo
[36] = Cmax in ob/ob C57BL/6J-leptin deficient obese mouse at 3 mg/kg administered as single dose on day 11; type: ADME, organism-based; parameters: dose 3 mg/kg; settings: in vivo
[37] = Cmax in Beagle dog at 3 mg/kg administered as multiple dose after 7 days; type: ADME, organism-based, Canis lupus familiaris; parameters: dose 3 mg/kg; settings: in vivo
[38] = tested on: Canis familiaris; assay: Effect on alanine aminotransferase level in Beagle dog serum at 0.3 to 3 mg/kg, po/day after 7 days; type: functional, organism-based; settings: Canis lupus familiaris
[39] = tested on: Mus musculus; assay: […] effect of ob/ob C57BL/6J-leptin deficient obese mouse assessed as increase in liver weight at 0.1 to 3 mg/kg, po after 11 days; type: functional; settings: dose mg/kg 0.1-3
[40] = AUC in ob/ob C57BL/6J-leptin deficient obese mouse at 0.3 mg/kg administered as multiple dose after 11 days; type: ADME, organism-based; parameters: dose 0.3 mg/kg; settings: plasma
[41] = tested on: Mus musculus; assay: […] effect of ob/ob C57BL/6J-leptin deficient obese mouse assessed as reduction in triglyceride level at 0.1 to 3 mg/kg, po after 11 days; type: functional; parameters: scale not given: the % may be the effect or the level left; settings: dose mg/kg 0.1-3
[42] = Half life in Beagle dog at 10 mg/kg administered as single dose on day 7; type: ADME, organism-based, Canis lupus familiaris; parameters: dose 10 mg/kg; settings: in vivo
[43] = Cmax in Beagle dog at 0.3 mg/kg administered as multiple dose after 7 days; type: ADME, organism-based, Canis lupus familiaris; parameters: dose 0.3 mg/kg; settings: in vivo

Cmax [4]: 82 ng/mL
AUC at 168 h [5]: 2650 ng·h/mL
Cmax [6]: 26300 ng/mL
half-life [7]: 5.5 h
Activity [8]: inactive
AUC at 264 h [9]: 2780 ng·h/mL
Cmax [11]: 2520 ng/mL
half-life [12]: 5.1 h
half-life [14]: 6.5 h
half-life [15]: 5.1 h
IC50 [16]: > 30 µM
Cmax [18]: 231 ng/mL
Cmax [19]: 10100 ng/mL
AUC [21]: 24200 ng·h/mL
half-life [22]: 5.2 h
half-life [23]: 4.7 h
half-life [25]: 6.7 h
Cmax [26]: 10100 ng/mL
AUC [28]: 115000 ng·h/mL
AUC at 168 h [29]: 61600 ng·h/mL
Activity [30]: inactive
AUC at 192 h [31]: 13900 ng·h/mL
AUC at 264 h [32]: 249000 ng·h/mL
AUC [34]: 57200 ng·h/mL
half-life [35]: 5.1 h
Cmax [36]: 19300 ng/mL
Cmax [37]: 6710 ng/mL
AUC at 264 h [40]: 10600 ng·h/mL
half-life [42]: 5.8 h
Cmax [43]: 398 ng/mL
SMILES: Cc1cc(SCc2nc(-c3ccc(Cl)c(Cl)c3)ns2)ccc1OC(C)(C)C(=O)O
Activity [1]: inactive
Fold change [2]: 7.8
Fold change [3]: 15
Fold change [10]: 1.5
Activity [13]: Active
Activity [17]: Dose-dependent effect
Activity [20]: Dose-dependent effect
Activity [24]: Dose-dependent effect
Activity [27]: 50%
Activity [33]: 52%
Activity [38]: inactive
Activity [39]: 65%
Activity [41]: 83%
